Source: US20190302102A1, “COMBINATION THERAPIES FOR TREATING BIPOLAR DISORDER, AND METHODS FOR USING THE SAME” (PsychNostics, LLC, priority 2016, published 2019)

Tests used:
BD patient = assay: Clinical case observation of tolerability (Example 4); type: in vivo, human; details: very low dosage, given for anxiety; person with BD
Text: At the time of their first blood draw, they reported having been off of their medications for BD for one month, but had not become clinically symptomatic, and tested in the BD range (“(Before)” of FIG. 4). When retested, they had been taking lithium, quetiapine, and mirtazapine for some time and had been back at work. […] Subsequently, they reported anxiety, occurring while they continued taking lithium, quetiapine, and mirtazapine. They thought they might be experiencing a return of bipolar symptomatology, but this was determined to possibly be situational instead. They had some awareness of issues with their fiancé and this awareness was “bolstered” by the notion that their MPR™ test had been in the normal range on their medication regimen not so many months before. […] They wanted a medication to help their through what they were experiencing, but could not be given benzodiazepines because of a history of difficulty with alcohol. Very low dosage perphenazine was given, in keeping with its old indication for neurotic anxiety.

BD patients = details: cited from earlier work
[1] = tested on: whole blood cells from BD patients; assay: MPR™ (Membrane Potential Ratio) test, agents added to the test buffer in vitro; type: cell-based, human; details: 1 mM Li alone in EtOH test buffer, whole blood of BD patients
Method: The present inventor developed a ratiometric assay to measure the ratio of the membrane potential called Membrane Potential Ratio (MPR™), using a reference buffer and a test buffer. […] The reference buffer may contain NaCl, CaCl2 and glucose at physiological concentrations. The buffering agent HEPES was also added to the buffer to maintain the pH. […] The test buffer may contain K^+ or no K^+. The membrane potentials were measured in both the buffers and the ratio of the MP in the test buffer to the MP in the reference buffer was designated the “Membrane Potential Ratio” (MPR™).
The membrane potentials of whole blood cells can be measured using two different buffers in a plate reader. The mean MPR™ value is the ratio between the membrane potential of a patient's cells in the test buffer as the numerator and that in the reference buffer as the denominator (for example, determined by statistical analysis of multiple measurements, using the ANOVA and the multiple statistical regression analysis).
As mentioned herein, MPR™ is the ratio between the membrane potential (MP) in the test buffer and that in the reference buffer. In these experiments, the reference buffer contained NaCl, CaCl2, glucose and HEPES, whereas the test buffer contained ethyl alcohol (EtOH) in addition to NaCl, CaCl2, glucose and HEPES. Lithium, inositol and carbachol were added to the test buffer in these experiments.
Whole blood samples were obtained from BD patients, and a portion from each blood sample was suspended in the test buffer for 20 minutes, and a portion from each blood sample was suspended in the reference buffer for 20 minutes. After this incubation, the samples were centrifuged for five minutes, drained, then re-suspended in their respective buffer (test or reference buffer). These samples were then distributed in 96 well plates, and tested in a plate reader (FLx 800 manufactured by BioTek).

[2] = blood plasma; Freudenreich et al. 2009; cited from earlier work

OCCN1CCN(CCCN2c3ccccc3Sc3ccc(Cl)cc32)CC1 [perphenazine]
Side effect leading to discontinuation (BD patient): blurred vision

[Li] [Li, lithium]
side effects at the therapeutic level (BD patients; at therapeutic concentration of 1.2 mM): nausea, diarrhea, dizziness, muscle weakness, fatigue, and a dazed feeling | therapeutic level (BD patients; lithium level in BD therapy): around 1.2 mM | toxic level (BD patients; lithium level in BD therapy): about 2 mM | MPR™ value ([1]; Example 1, FIG. 1): 0.814 | MPR™ value ([1]; Example 2, FIG. 2): 0.757 | MPR™ value ([1]; Example 3, FIG. 3): 0.780

CN1CCN(C2=Nc3cc(Cl)ccc3Nc3ccccc32)CC1 [clozapine]
presently used therapeutic levels [2]: 200 to 1000 ng/mL
